Assay results published in EP3046573B1, “AMYLIN ANALOGUES” (Zealand Pharma A/S, priority 2013, dated 2015).
Where two headings read alike, the source gives them in different places. Numbered stars: 1 amine (or outer) side, 2 acyl side, 3 side chain; on linkers, the order of the positions; unused ones are H or OH. Bridge positions count the residues as written; N and C are the ends. Square brackets hold non-standard residues; d marks the D form. Peptide text beside a SMILES is read from it. * marks the point of attachment. C20 diacid = O=C(O)CCCCCCCCCCCCCCCCCCC(=O)*; γGlu = O=C(O)[C@H](CCC(=O)[*:2])N[*:1]; Hyp = O=C(O)[C@@H]1C[C@@H](O)CN1; NMeI = CC[C@H](C)[C@H](NC)C(=O)O; Sar = CNCC(=O)O

Experiments:
[1] = biological target: T1, human amylin receptor 3 (hAMYR3) consisting of hCTR2 co-expressed with human Receptor Activity Modifying Protein 3 (hRAMP3) (Homo sapiens, UniProt O60896+P30988); experiment: hAMYR3 assay: induction of cAMP (AlphaScreen cAMP Assay kit) in COS7 cells expressing hAMYR3; format: cell-based
T1 construct: expressed in transfected cells
T1 sequence (P30988 25-474): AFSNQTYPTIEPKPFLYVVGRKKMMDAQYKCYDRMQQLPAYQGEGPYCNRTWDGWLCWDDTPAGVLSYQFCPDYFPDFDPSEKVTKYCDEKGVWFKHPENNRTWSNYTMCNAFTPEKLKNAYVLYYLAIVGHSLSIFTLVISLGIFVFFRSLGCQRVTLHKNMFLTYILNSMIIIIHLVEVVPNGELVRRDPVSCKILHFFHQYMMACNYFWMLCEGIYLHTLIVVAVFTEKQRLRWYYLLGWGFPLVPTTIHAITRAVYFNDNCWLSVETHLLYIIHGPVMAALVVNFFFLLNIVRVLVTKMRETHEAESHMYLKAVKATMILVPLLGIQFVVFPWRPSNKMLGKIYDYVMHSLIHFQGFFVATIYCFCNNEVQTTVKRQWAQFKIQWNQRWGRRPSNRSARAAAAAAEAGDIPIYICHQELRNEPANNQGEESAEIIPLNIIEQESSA
T1 sequence (O60896 24-148 partner): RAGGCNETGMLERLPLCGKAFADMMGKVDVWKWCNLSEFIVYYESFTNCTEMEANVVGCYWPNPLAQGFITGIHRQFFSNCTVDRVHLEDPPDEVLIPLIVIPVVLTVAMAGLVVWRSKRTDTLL
Procedure, shortened: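 Stable COS7 clone co-expressing hCTR2 and hRAMP3, stimulated 15 min at 37° C with increasing peptide in Tyrode buffer pH 7.4 with 100 µM IBMX and 0.1% casein. cAMP measured by AlphaScreen after lysis; EC50 and % efficacy versus pramlintide from 4PL fit.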

[2] = Assessment of physical stability: fibril formation detected with Thioflavin T (ThT), lag-time; format: physicochemical; conditions: 1 mg/ml peptide, 40 µM ThT, FND = Fibrillation not detected; for Fibrillation lag time (hours) pH 4.0 (Ac): 50 mM acetate buffer pH 4.0, 96 hours at 40°C; for Fibrillation lag time (hours) pH 7.0 (His): 50 mM histidine buffer pH 7.0, 96 hours at 40°C; for Fibrillation lag time (hours) pH 7.0 (Ph): 50 mM phosphate buffer pH 7.0, 96 hours at 40°C
Procedure, shortened: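 Test peptide at 1 mg/ml with 40 µM ThT in 50 mM phosphate (pH 7.0), 50 mM histidine (pH 7.0) or 50 mM acetate (pH 4.0), in triplicate, 40° C. for 96 h. Fluorescence read every 10 min after 300 s agitation. Lag-time (h) taken as intersection of linear fits to initial stable and growth phases.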

[3] = cAMP induction in COS7 cells expressing hAMYR3, average of a minimum of 3 determinations, read-out: hAMY R3 EC50

SMILES: CC[C@H](C)[C@@H](C(=O)N[C@@H](CC(C)C)C(=O)N[C@H](CO)C(=O)N[C@@H](CO)C(=O)N[C@H](C(=O)N[C@@H](CC(N)=O)C(=O)N[C@H](C(=O)NCC(=O)N[C@@H](CO)C(=O)N[C@@H](CC(N)=O)C(=O)N[C@H](C(=O)N1CCC[C@H]1C(N)=O)[C@@H](C)O)C(C)C)[C@@H](C)O)N(C)C(=O)[C@H](C)NC(=O)CN(C)C(=O)[C@@H](Cc1ccccc1)NC(=O)[C@H](CC(N)=O)NC(=O)[C@H](CC(N)=O)NC(=O)[C@H](CO)NC(=O)[C@H](CO)NC(=O)[C@H](CCCNC(=N)N)NC(=O)[C@H](Cc1c[nH]cn1)NC(=O)[C@H](CC(C)C)NC(=O)[C@H](Cc1ccccc1)NC(=O)[C@H](CCC(=O)O)NC(=O)[C@H](C)NC(=O)[C@H](CC(C)C)NC(=O)[C@H](CCCNC(=N)N)NC(=O)[C@H](CCC(N)=O)NC(=O)[C@@H](NC(=O)[C@H](C)NC(=O)[C@@H]1CSSC[C@H](NC(=O)[C@H](CCCCN)NC(=O)CC[C@H](NC(=O)CCCCCCCCCCCCCCCCCCC(=O)O)C(=O)O)C(=O)N[C@@H](CC(N)=O)C(=O)N[C@@H]([C@@H](C)O)C(=O)N[C@@H](C)C(=O)N[C@@H]([C@@H](C)O)C(=O)N1)[C@@H](C)O [Compound 72, [19CD]-isoGlu-KC()NTATC()ATQRLAEFLHRSSNN-DPhe-Gly(Me)-A-Ile(Me)-L-DSer-STNVGSNTP] ({C20 diacid-γGlu}-KCNTATCATQRLAEFLHRSSNN[dF][Sar]A[NMeI]L[dS]STNVGSNTP-NH2; disulfide 2-7)
- EC50 [1]: 0.098 nM
- Fibrillation lag time (hours) pH 4.0 (Ac) [2]: FND
- Fibrillation lag time (hours) pH 7.0 (His) [2]: FND
- Fibrillation lag time (hours) pH 7.0 (Ph) [2]: FND

SMILES: CC[C@H](C)[C@@H](C(=O)N[C@@H](CC(C)C)C(=O)N[C@@H](CO)C(=O)N[C@@H](CO)C(=O)N[C@H](C(=O)N[C@@H](CC(=O)O)C(=O)N[C@H](C(=O)NCC(=O)N[C@@H](CO)C(=O)N[C@@H](CC(=O)O)C(=O)N[C@H](C(=O)N1CCC[C@H]1C(N)=O)[C@@H](C)O)C(C)C)[C@@H](C)O)N(C)C(=O)[C@H](C)NC(=O)CN(C)C(=O)[C@H](Cc1ccccc1)NC(=O)[C@H](CO)NC(=O)[C@H](CO)NC(=O)[C@H](CO)NC(=O)[C@H](CO)NC(=O)[C@H](CCCNC(=N)N)NC(=O)[C@H](Cc1c[nH]cn1)NC(=O)[C@H](CC(C)C)NC(=O)[C@H](Cc1ccccc1)NC(=O)[C@H](CCC(=O)O)NC(=O)[C@H](C)NC(=O)[C@H](CC(C)C)NC(=O)[C@H](CCCNC(=N)N)NC(=O)[C@H](CCC(N)=O)NC(=O)[C@@H](NC(=O)[C@H](C)NC(=O)[C@@H]1CSSC[C@H](NC(=O)[C@H](CCCNC(=N)N)NC(=O)CC[C@H](NC(=O)CCCCCCCCCCCCCCCCCCC(=O)O)C(=O)O)C(=O)N[C@@H](CC(N)=O)C(=O)N[C@@H]([C@@H](C)O)C(=O)N[C@@H](C)C(=O)N[C@@H]([C@@H](C)O)C(=O)N1)[C@@H](C)O [Compound 73, [19CD]-isoGlu-RC()NTATC()ATQRLAEFLHRSSSSF-Gly(Me)-A-Ile(Me)-LSSTDVGSDTP-NH2] ({C20 diacid-γGlu}-RCNTATCATQRLAEFLHRSSSSF[Sar]A[NMeI]LSSTDVGSDTP-NH2; disulfide 2-7)
- EC50 [1, 3]: 0.14 nM
- Fibrillation lag time (hours) pH 4.0 (Ac) [2]: FND
- Fibrillation lag time (hours) pH 7.0 (His) [2]: FND
- Fibrillation lag time (hours) pH 7.0 (Ph) [2]: FND

SMILES: CC[C@H](C)[C@@H](C(=O)N[C@@H](CC(C)C)C(=O)N[C@@H](CO)C(=O)N[C@@H](CO)C(=O)N[C@H](C(=O)N[C@@H](CCC(=O)O)C(=O)N[C@H](C(=O)NCC(=O)N[C@@H](CO)C(=O)N[C@@H](CCC(=O)O)C(=O)N[C@H](C(=O)N1CCC[C@H]1C(N)=O)[C@@H](C)O)C(C)C)[C@@H](C)O)N(C)C(=O)[C@H](C)NC(=O)CN(C)C(=O)[C@H](Cc1ccccc1)NC(=O)[C@H](CO)NC(=O)[C@H](CO)NC(=O)[C@H](CO)NC(=O)[C@H](CO)NC(=O)[C@H](CCCNC(=N)N)NC(=O)[C@H](Cc1c[nH]cn1)NC(=O)[C@H](CC(C)C)NC(=O)[C@H](Cc1ccccc1)NC(=O)[C@H](CCC(=O)O)NC(=O)[C@H](C)NC(=O)[C@H](CC(C)C)NC(=O)[C@H](CCCNC(=N)N)NC(=O)[C@H](CCC(N)=O)NC(=O)[C@@H](NC(=O)[C@H](C)NC(=O)[C@@H]1CSSC[C@H](NC(=O)[C@H](CCCNC(=N)N)NC(=O)CC[C@H](NC(=O)CCCCCCCCCCCCCCCCCCC(=O)O)C(=O)O)C(=O)N[C@@H](CC(N)=O)C(=O)N[C@@H]([C@@H](C)O)C(=O)N[C@@H](C)C(=O)N[C@@H]([C@@H](C)O)C(=O)N1)[C@@H](C)O [Compound 76, [19CD]-isoGlu-RC()NTATC()ATQRLAEFLHRSSSSF-Gly(Me)-A-Ile(Me)-LSSTEVGSETP-NH2] ({C20 diacid-γGlu}-RCNTATCATQRLAEFLHRSSSSF[Sar]A[NMeI]LSSTEVGSETP-NH2; disulfide 2-7)
- EC50 [1, 3]: 0.24 nM
- Fibrillation lag time (hours) pH 4.0 (Ac) [2]: FND
- Fibrillation lag time (hours) pH 7.0 (His) [2]: FND
- Fibrillation lag time (hours) pH 7.0 (Ph) [2]: FND

SMILES: CC[C@H](C)[C@@H](C(=O)N[C@@H](CC(C)C)C(=O)N[C@@H](CO)C(=O)N[C@@H](CO)C(=O)N[C@H](C(=O)N[C@@H](CCC(=O)O)C(=O)N[C@H](C(=O)NCC(=O)N[C@@H](CO)C(=O)N[C@@H](CCC(=O)O)C(=O)N[C@H](C(=O)N1CCC[C@H]1C(N)=O)[C@@H](C)O)C(C)C)[C@@H](C)O)N(C)C(=O)[C@H](C)NC(=O)CN(C)C(=O)[C@H](Cc1ccccc1)NC(=O)[C@H](CO)NC(=O)[C@H](CO)NC(=O)[C@H](CCCNC(=N)N)NC(=O)[C@H](Cc1c[nH]cn1)NC(=O)[C@H](CC(C)C)NC(=O)[C@H](Cc1ccccc1)NC(=O)[C@H](CCC(=O)O)NC(=O)[C@H](C)NC(=O)[C@H](CC(C)C)NC(=O)[C@H](CCCNC(=N)N)NC(=O)[C@H](CCC(N)=O)NC(=O)[C@@H](NC(=O)[C@H](C)NC(=O)[C@@H]1CSSC[C@H](NC(=O)[C@H](CCCNC(=N)N)NC(=O)CC[C@H](NC(=O)CCCCCCCCCCCCCCCCCCC(=O)O)C(=O)O)C(=O)N[C@@H](CC(N)=O)C(=O)N[C@@H]([C@@H](C)O)C(=O)N[C@@H](C)C(=O)N[C@@H]([C@@H](C)O)C(=O)N1)[C@@H](C)O [Compound 82, [19CD]-isoGlu-RC()NTATC()ATQRLAEFLHRSSF-Gly(Me)-A-Ile(Me)-LSSTEVGSETP-NH2] ({C20 diacid-γGlu}-RCNTATCATQRLAEFLHRSSF[Sar]A[NMeI]LSSTEVGSETP-NH2; disulfide 2-7)
- EC50 [1, 3]: 0.12 nM
- Fibrillation lag time (hours) pH 4.0 (Ac) [2]: FND
- Fibrillation lag time (hours) pH 7.0 (His) [2]: FND
- Fibrillation lag time (hours) pH 7.0 (Ph) [2]: FND

SMILES: CC[C@H](C)[C@@H](C(=O)N[C@@H](CC(C)C)C(=O)N[C@@H](CO)C(=O)N[C@@H](CO)C(=O)N[C@H](C(=O)N[C@@H](CC(N)=O)C(=O)N[C@H](C(=O)NCC(=O)N[C@@H](CO)C(=O)N[C@@H](CC(N)=O)C(=O)N[C@H](C(=O)N1C[C@H](O)C[C@H]1C(N)=O)[C@@H](C)O)C(C)C)[C@@H](C)O)N(C)C(=O)[C@H](C)NC(=O)CN(C)C(=O)[C@H](Cc1ccccc1)NC(=O)[C@H](CC(N)=O)NC(=O)[C@H](CC(N)=O)NC(=O)[C@H](CO)NC(=O)[C@H](CO)NC(=O)[C@H](CCCNC(=N)N)NC(=O)[C@H](Cc1c[nH]cn1)NC(=O)[C@H](CC(C)C)NC(=O)[C@H](Cc1ccccc1)NC(=O)[C@H](CCC(=O)O)NC(=O)[C@H](C)NC(=O)[C@H](CC(C)C)NC(=O)[C@H](CCCNC(=N)N)NC(=O)[C@H](CCC(N)=O)NC(=O)[C@@H](NC(=O)[C@H](C)NC(=O)[C@@H]1CSSC[C@H](NC(=O)[C@H](CCCNC(=N)N)NC(=O)CC[C@H](NC(=O)CCCCCCCCCCCCCCCCCCC(=O)O)C(=O)O)C(=O)N[C@@H](CC(N)=O)C(=O)N[C@@H]([C@@H](C)O)C(=O)N[C@@H](C)C(=O)N[C@@H]([C@@H](C)O)C(=O)N1)[C@@H](C)O [Compound 105, [19CD]-isoGlu-RC()NTATC()ATQRLAEFLHRSSNNF-Gly(Me)-A-Ile(Me)-LSSTNVGSNT-Hyp-NH2] ({C20 diacid-γGlu}-RCNTATCATQRLAEFLHRSSNNF[Sar]A[NMeI]LSSTNVGSNT[Hyp]-NH2; disulfide 2-7)
- EC50 [1]: 0.092 nM
- Fibrillation lag time (hours) pH 4.0 (Ac) [2]: FND
- Fibrillation lag time (hours) pH 7.0 (His) [2]: FND
- Fibrillation lag time (hours) pH 7.0 (Ph) [2]: FND
